# Results: ChEMBL document CHEMBL4507259 (2021)
# Legend:
# [1] = molecular target: Serine/threonine-protein kinase WNK3 (Homo sapiens) (UniProt Q9BYP7); conditions: Compound concentration 1000.0 nM
# [2] = test system: KMS-11; test: KMS-11 cell line Proliferation assay; type: functional, Homo sapiens; conditions: Compound concentration 10 uM; time 3 day
# [3] = test system: HCC70; test: HCC70 cell line Proliferation assay; type: functional, Homo sapiens; conditions: Compound concentration 10 uM; time 5 day
# [4] = molecular target: Interleukin-1 receptor-associated kinase 3 (Homo sapiens) (UniProt Q9Y616); conditions: Compound concentration 1000.0 nM
# [5] = molecular target: Cyclin-dependent kinase 7 (Homo sapiens) (UniProt P50613); conditions: Compound concentration 1000.0 nM
# [6] = test system: NCI-H1417; test: H1417 cell line Proliferation assay; type: functional, Homo sapiens; conditions: Compound concentration 10 uM; time 4 day
# [7] = molecular target: Serine/threonine-protein kinase D3 (Homo sapiens) (UniProt O94806); conditions: Compound concentration 1000.0 nM
# [8] = test system: LNCaP-Clone-FGC; test: LnCaP -FGC cell line Proliferation assay; type: functional, Homo sapiens; conditions: Compound concentration 10 uM; time 5 day
# [9] = test system: NCI-H1048; test: H1048 cell line Proliferation assay; type: functional, Homo sapiens; conditions: Compound concentration 10 uM; time 4 day
# [10] = molecular target: Phosphorylase b kinase gamma catalytic chain, skeletal muscle/heart isoform (Homo sapiens) (UniProt Q16816); conditions: Compound concentration 1000.0 nM
# [11] = molecular target: Casein kinase I isoform delta (Homo sapiens) (UniProt P48730); conditions: Compound concentration 1000.0 nM
# [12] = molecular target: Serine/threonine-protein kinase 36 (Homo sapiens) (UniProt Q9NRP7); conditions: Compound concentration 1000.0 nM
# [13] = molecular target: SNF-related serine/threonine-protein kinase (Homo sapiens) (UniProt Q9NRH2); conditions: Compound concentration 1000.0 nM
# [14] = test system: NCI-H187; test: H187 cell line Proliferation assay; type: functional, Homo sapiens; conditions: Compound concentration 10 uM; time 4 day
# [15] = test system: COR-L47; test: Cor-L47 cell line Proliferation assay; type: functional, Homo sapiens; conditions: Compound concentration 10 uM; time 4 day
# [16] = molecular target: Phosphatidylinositol 4,5-bisphosphate 3-kinase catalytic subunit delta isoform (Homo sapiens) (UniProt O00329); conditions: Compound concentration 1000.0 nM
# [17] = test system: HCC38; test: HCC38 cell line Proliferation assay; type: functional, Homo sapiens; conditions: Compound concentration 10 uM; time 5 day
# [18] = test system: NCI-H661; test: H661 cell line Proliferation assay; type: functional, Homo sapiens; conditions: Compound concentration 10 uM; time 3 day
# [19] = molecular target: Cyclin-dependent kinase 17 (Homo sapiens) (UniProt Q00537); conditions: Compound concentration 1000.0 nM
# [20] = test system: NCI-H929; test: H929 cell line Proliferation assay; type: functional, Homo sapiens; conditions: Compound concentration 10 uM; time 3 day
# [21] = test system: NCI-H727; test: H727 cell line Proliferation assay; type: functional, Homo sapiens; conditions: Compound concentration 10 uM; time 3 day
# [22] = molecular target: Serine/threonine-protein kinase pim-2 (Homo sapiens) (UniProt Q9P1W9); conditions: Compound concentration 1000.0 nM
# [23] = molecular target: Sodium-dependent serotonin transporter (Homo sapiens, UniProt P31645); conditions: Compound concentration 10.0 uM
# [24] = test system: HL-60; test: HL-60 cell line Proliferation assay; type: functional, Homo sapiens; conditions: Compound concentration 10 uM; time 3 day
# [25] = test system: Phosphatidylinositol 4,5-bisphosphate 3-kinase catalytic subunit alpha isoform (Homo sapiens), P42336 [C420R]; conditions: Compound concentration 1000.0 nM
# [26] = test system: Rec1; test: REC1 cell line Proliferation assay; type: functional, Homo sapiens; conditions: Compound concentration 10 uM; time 3 day
# [27] = molecular target: Translocator protein (Rattus norvegicus) (UniProt P16257); test: BZD (peripheral) CEREP ligand profiling; conditions: filed as antagonist; Compound concentration 10.0 uM
# [28] = molecular target: Serine/threonine-protein kinase LATS2 (Homo sapiens) (UniProt Q9NRM7); conditions: Compound concentration 1000.0 nM
# [29] = molecular target: Serine/threonine-protein kinase Chk1 (Homo sapiens) (UniProt O14757); conditions: Compound concentration 1000.0 nM
# [30] = test system: NCI-H2081; test: H2081 cell line Proliferation assay; type: functional, Homo sapiens; conditions: Compound concentration 10 uM; time 4 day
# [31] = molecular target: Beta-2 adrenergic receptor (Homo sapiens) (UniProt P07550); test: beta 2 (h) CEREP ligand profiling; conditions: filed as agonist, Compound concentration 10.0 uM
# [32] = test system: OPM-2; test: OPM-2 cell line Proliferation assay; type: functional, Homo sapiens; conditions: Compound concentration 10 uM; time 3 day
# [33] = test system: L-363; test: L-363 cell line Proliferation assay; type: functional, Homo sapiens; conditions: Compound concentration 10 uM; time 3 day
# [34] = molecular target: B2 bradykinin receptor (Homo sapiens) (UniProt P30411); test: B2 (h) CEREP ligand profiling; conditions: filed as agonist, Compound concentration 10.0 uM
# [35] = test system: NCI-H146; test: H146 cell line Proliferation assay; type: functional, Homo sapiens; conditions: Compound concentration 10 uM; time 4 day
# [36] = molecular target: Serine/threonine-protein kinase 26 (Homo sapiens) (UniProt Q9P289); conditions: Compound concentration 1000.0 nM
# [37] = test system: RPMI-8226; test: RPMI-8226 cell line Proliferation assay; type: functional, Homo sapiens; conditions: Compound concentration 10 uM; time 3 day
# [38] = molecular target: Calcitonin-gene-related peptide receptor, CALCRL/RAMP1 (Homo sapiens) (UniProt O60894+Q16602); test: CGRP (h) CEREP ligand profiling; type: protein-complex assay; conditions: filed as agonist, Compound concentration 10.0 uM
# [39] = molecular target: Receptor-interacting serine/threonine-protein kinase 1 (Homo sapiens) (UniProt Q13546); conditions: Compound concentration 1000.0 nM
# [40] = molecular target: T1, 5-hydroxytryptamine receptor 3A (Homo sapiens) (UniProt P46098); conditions: Compound concentration 10.0 uM
# T1 sequence (whole entry): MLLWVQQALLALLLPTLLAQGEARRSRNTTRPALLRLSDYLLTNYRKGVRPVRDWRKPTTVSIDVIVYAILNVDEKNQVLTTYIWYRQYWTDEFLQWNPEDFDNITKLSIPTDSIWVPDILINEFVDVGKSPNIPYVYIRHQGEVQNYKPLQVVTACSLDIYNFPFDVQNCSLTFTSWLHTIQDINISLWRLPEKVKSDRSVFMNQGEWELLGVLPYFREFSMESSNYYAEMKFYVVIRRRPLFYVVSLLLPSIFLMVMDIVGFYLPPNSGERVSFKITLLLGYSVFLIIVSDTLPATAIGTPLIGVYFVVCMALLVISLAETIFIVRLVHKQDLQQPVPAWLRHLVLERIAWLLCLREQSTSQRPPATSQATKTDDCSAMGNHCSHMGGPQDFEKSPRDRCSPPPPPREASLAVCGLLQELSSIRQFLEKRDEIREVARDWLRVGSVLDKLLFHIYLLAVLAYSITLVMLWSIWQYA
# [41] = molecular target: Calcium/calmodulin-dependent protein kinase type IV (Homo sapiens) (UniProt Q16566); conditions: Compound concentration 1000.0 nM
# [42] = molecular target: Ephrin type-A receptor 8 (Homo sapiens) (UniProt P29322); conditions: Compound concentration 1000.0 nM
# [43] = molecular target: Neuropeptide Y receptor type 1 (Homo sapiens) (UniProt P25929); test: Y1 (h) CEREP ligand profiling; conditions: filed as agonist, Compound concentration 10.0 uM
# [44] = molecular target: Cholecystokinin receptor type A (Homo sapiens) (UniProt P32238); test: CCK1 (CCKA) (h) CEREP ligand profiling; conditions: filed as agonist, Compound concentration 10.0 uM
# [45] = molecular target: Cyclin-dependent kinase 18 (Homo sapiens) (UniProt Q07002); conditions: Compound concentration 1000.0 nM
# [46] = molecular target: CREB-binding protein/Histone acetyltransferase p300 (Homo sapiens, UniProt Q09472+Q92793); test: Inhibition of H3K27Ac (LnCaP-FGC); type: cell-based; conditions: lncap-clone-fgc
# Sequence of Interleukin-1 receptor-associated kinase 3 (Homo sapiens) (Q9Y616 whole entry): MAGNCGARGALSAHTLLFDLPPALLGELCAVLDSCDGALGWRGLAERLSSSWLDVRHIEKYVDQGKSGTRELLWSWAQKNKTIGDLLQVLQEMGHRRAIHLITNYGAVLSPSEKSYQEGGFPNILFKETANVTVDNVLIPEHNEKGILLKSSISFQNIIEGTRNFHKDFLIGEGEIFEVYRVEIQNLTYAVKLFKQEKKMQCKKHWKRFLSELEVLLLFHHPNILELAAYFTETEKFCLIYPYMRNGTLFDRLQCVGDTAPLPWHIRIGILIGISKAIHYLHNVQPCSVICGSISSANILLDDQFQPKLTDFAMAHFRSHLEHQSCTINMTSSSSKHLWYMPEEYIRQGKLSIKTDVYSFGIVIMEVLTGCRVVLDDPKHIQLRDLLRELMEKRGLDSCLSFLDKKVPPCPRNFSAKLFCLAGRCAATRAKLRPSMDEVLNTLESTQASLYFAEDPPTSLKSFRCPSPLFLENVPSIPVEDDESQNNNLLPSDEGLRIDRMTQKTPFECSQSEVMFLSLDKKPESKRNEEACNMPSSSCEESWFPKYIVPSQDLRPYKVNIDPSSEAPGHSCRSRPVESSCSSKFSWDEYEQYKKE
# Sequence of Serine/threonine-protein kinase 26 (Homo sapiens) (Q9P289 2-416 limits assumed): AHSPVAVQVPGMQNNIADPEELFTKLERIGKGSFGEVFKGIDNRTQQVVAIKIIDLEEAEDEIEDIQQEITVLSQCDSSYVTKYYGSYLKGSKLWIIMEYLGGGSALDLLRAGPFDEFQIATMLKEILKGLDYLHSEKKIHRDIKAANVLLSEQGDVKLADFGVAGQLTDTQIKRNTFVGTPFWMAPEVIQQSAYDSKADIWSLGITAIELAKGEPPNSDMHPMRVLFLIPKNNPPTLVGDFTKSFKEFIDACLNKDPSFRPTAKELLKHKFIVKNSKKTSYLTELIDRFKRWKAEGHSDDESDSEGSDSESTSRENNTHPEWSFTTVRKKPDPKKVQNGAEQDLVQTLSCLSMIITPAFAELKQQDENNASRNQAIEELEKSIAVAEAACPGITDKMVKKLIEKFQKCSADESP
# Sequence of Serine/threonine-protein kinase WNK3 (Homo sapiens) (Q9BYP7 whole entry): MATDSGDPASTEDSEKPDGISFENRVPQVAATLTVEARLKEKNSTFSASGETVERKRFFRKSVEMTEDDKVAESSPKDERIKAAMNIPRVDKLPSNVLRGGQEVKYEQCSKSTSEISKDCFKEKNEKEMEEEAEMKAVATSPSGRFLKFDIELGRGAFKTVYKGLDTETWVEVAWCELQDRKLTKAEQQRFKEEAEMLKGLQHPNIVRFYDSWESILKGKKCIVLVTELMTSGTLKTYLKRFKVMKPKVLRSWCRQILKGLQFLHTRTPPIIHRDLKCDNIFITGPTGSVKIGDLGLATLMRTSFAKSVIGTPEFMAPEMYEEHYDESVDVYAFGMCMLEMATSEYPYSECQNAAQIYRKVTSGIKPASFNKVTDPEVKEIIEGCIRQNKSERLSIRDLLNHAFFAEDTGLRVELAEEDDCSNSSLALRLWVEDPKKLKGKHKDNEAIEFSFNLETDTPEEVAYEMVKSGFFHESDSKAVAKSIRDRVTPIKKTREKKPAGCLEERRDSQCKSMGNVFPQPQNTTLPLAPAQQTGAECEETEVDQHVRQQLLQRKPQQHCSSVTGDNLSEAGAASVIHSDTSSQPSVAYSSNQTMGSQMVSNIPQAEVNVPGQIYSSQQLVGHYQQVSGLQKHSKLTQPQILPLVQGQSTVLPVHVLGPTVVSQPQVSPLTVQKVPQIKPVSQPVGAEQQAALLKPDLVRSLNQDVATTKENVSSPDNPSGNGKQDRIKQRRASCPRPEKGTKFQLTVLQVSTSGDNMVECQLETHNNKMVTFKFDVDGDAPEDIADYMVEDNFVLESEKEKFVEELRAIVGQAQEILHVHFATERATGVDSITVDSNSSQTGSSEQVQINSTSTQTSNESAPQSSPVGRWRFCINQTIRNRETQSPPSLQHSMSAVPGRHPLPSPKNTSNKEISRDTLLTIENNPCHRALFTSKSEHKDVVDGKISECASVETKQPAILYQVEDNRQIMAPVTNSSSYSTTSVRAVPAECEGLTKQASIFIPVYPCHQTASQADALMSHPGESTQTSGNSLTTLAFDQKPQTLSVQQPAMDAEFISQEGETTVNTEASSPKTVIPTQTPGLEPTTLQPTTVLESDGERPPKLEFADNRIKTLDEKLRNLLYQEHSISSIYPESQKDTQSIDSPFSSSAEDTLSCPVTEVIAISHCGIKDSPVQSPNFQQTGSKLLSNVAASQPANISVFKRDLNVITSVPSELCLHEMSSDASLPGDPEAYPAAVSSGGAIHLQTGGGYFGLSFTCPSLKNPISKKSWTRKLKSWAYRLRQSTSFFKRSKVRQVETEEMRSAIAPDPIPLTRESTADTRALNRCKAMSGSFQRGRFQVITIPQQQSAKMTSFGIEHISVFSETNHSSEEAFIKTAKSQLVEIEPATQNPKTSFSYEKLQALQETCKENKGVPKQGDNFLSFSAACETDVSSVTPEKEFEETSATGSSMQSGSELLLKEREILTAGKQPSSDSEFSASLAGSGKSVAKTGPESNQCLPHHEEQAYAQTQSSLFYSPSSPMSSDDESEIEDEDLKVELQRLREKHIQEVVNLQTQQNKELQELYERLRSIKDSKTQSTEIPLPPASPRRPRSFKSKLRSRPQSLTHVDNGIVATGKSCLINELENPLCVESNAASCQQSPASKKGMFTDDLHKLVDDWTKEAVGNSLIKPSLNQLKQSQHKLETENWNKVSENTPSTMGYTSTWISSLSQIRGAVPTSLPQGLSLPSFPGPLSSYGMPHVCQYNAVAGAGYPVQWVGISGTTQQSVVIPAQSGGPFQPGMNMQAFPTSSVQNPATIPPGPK
# Sequence of Receptor-interacting serine/threonine-protein kinase 1 (Homo sapiens) (Q13546 whole entry): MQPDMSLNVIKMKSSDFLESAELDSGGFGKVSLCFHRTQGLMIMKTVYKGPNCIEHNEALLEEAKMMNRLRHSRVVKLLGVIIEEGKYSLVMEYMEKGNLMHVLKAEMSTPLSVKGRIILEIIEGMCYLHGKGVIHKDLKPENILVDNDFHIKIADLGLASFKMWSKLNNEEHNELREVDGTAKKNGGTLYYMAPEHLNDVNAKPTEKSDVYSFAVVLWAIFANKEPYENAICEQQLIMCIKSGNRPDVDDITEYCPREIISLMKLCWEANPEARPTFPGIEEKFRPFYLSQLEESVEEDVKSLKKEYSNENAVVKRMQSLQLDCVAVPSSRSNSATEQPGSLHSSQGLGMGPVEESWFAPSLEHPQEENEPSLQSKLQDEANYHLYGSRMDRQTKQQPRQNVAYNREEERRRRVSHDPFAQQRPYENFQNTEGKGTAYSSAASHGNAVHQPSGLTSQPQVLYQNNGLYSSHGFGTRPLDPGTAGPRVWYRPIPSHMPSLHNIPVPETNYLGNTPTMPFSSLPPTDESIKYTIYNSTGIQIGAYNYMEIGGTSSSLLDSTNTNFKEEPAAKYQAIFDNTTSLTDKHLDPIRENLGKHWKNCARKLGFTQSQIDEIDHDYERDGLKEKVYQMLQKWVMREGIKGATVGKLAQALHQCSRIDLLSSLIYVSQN
# Sequence of Calcium/calmodulin-dependent protein kinase type IV (Homo sapiens) (Q16566 whole entry): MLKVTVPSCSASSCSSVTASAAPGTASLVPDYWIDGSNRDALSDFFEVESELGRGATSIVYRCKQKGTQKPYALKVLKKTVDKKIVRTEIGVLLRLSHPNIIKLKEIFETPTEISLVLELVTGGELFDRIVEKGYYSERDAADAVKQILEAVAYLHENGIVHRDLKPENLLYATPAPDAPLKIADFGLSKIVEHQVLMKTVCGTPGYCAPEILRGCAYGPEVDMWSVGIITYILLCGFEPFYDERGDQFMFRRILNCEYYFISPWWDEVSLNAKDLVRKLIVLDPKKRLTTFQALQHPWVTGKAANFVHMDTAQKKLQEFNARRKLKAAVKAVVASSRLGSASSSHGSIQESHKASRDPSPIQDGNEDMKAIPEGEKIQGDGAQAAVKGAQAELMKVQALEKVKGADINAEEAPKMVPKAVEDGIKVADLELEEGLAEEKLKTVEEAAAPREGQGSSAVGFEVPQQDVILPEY
# Sequence of Phosphorylase b kinase gamma catalytic chain, skeletal muscle/heart isoform (Homo sapiens) (Q16816 whole entry, looked up, canonical isoform): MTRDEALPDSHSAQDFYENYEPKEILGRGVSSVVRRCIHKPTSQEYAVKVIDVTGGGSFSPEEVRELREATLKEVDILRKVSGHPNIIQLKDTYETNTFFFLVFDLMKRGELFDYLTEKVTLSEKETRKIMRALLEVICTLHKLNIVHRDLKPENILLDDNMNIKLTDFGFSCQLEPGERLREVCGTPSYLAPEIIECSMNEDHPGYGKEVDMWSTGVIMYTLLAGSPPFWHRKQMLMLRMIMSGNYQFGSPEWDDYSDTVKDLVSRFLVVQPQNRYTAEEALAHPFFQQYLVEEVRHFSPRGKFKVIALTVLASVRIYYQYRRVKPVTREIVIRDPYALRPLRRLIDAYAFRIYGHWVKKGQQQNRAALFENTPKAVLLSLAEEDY
# Sequence of Cyclin-dependent kinase 17 (Homo sapiens) (Q00537 whole entry, looked up): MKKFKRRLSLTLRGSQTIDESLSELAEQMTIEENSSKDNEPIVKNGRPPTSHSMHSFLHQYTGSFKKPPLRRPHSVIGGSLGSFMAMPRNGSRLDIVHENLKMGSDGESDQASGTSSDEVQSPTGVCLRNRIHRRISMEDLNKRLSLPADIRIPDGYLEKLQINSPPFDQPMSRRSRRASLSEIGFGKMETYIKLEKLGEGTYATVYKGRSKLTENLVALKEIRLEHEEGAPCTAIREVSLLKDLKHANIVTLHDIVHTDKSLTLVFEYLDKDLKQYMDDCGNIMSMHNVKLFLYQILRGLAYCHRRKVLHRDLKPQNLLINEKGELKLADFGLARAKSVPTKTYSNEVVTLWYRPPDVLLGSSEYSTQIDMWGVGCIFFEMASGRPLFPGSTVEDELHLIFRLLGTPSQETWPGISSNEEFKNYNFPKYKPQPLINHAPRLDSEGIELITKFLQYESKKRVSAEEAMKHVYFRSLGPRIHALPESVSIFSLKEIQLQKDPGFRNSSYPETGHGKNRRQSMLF
# Sequence of Translocator protein (Rattus norvegicus) (P16257 whole entry, looked up): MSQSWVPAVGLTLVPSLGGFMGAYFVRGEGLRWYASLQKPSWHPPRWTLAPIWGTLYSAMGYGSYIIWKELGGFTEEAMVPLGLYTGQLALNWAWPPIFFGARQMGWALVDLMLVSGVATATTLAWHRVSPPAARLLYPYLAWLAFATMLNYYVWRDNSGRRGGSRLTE
smiles,measurement,setting,value
CNC(=O)Nc1ccc2c(c1)CC[C@@]21OC(=O)N(CC(=O)N(Cc2ccc(F)cc2)[C@@H](C)C(F)(F)F)C1=O [A-485],residual activity,[1],83%
same,Cell Proliferation EC50,[2],0.241 µM
same,Cell Proliferation EC50,[3],>10 µM
same,residual activity,[4],95%
same,residual activity,[5],78%
same,Cell Proliferation EC50,[6],>10 µM
same,residual activity,[7],100%
same,Cell Proliferation EC50,[8],0.26 µM
same,Cell Proliferation EC50,[9],>10 µM
same,residual activity,[10],100%
same,residual activity,[11],99%
same,residual activity,[12],77%
same,residual activity,[13],96%
same,Cell Proliferation EC50,[14],>10 µM
same,Cell Proliferation EC50,[15],>10 µM
same,residual activity,[16],92%
same,Cell Proliferation EC50,[17],>10 µM
same,Cell Proliferation EC50,[18],7.664 µM
same,residual activity,[19],96%
same,Cell Proliferation EC50,[20],0.329 µM
same,Cell Proliferation EC50,[21],6.632 µM
same,residual activity,[22],98%
same,inhibition,[23],95.6%
same,Cell Proliferation EC50,[24],>10 µM
same,residual activity,[25],80%
same,Cell Proliferation EC50,[26],>10 µM
same,inhibition,[27],72%
same,residual activity,[28],47%
same,residual activity,[29],98%
same,Cell Proliferation EC50,[30],>10 µM
same,inhibition,[31],8%
same,Cell Proliferation EC50,[32],0.62 µM
same,Cell Proliferation EC50,[33],0.509 µM
same,inhibition,[34],0%
same,Cell Proliferation EC50,[35],0.4 µM
same,residual activity,[36],90%
same,Cell Proliferation EC50,[37],0.164 µM
same,inhibition,[38],0%
same,residual activity,[39],100%
same,inhibition,[40],-8.97%
same,residual activity,[41],75%
CNC(=O)Nc1ccc2c(c1)[C@@]1(CC2)OC(=O)N(CC(=O)N(Cc2ccc(F)cc2)[C@@H](C)C(F)(F)F)C1=O [A-486],residual activity,[1],63%
same,residual activity,[4],100%
same,residual activity,[5],76%
same,residual activity,[7],100%
same,residual activity,[10],100%
same,residual activity,[11],100%
same,residual activity,[12],100%
same,residual activity,[13],100%
same,residual activity,[16],100%
same,residual activity,[42],96%
same,residual activity,[19],88%
same,residual activity,[22],89%
same,inhibition,[23],31%
same,inhibition,[43],-10%
same,residual activity,[25],80%
same,residual activity,[28],68%
same,inhibition,[44],1%
same,residual activity,[29],100%
same,residual activity,[45],100%
same,residual activity,[36],100%
same,IC50,[46],> 10 µM
same,residual activity,[39],93%
same,residual activity,[41],85%
